Key:
Assay in all cases: relative viability (nuclei count vs DMSO), 5 days (fraction); higher = more cells survive
[1] = compound: CCC1=CN=CN=C1N2CCN(CC2)CC3=NC4=C(N3)C=C(C=C4)C(F)(F)F + Cc1nc(NC(=O)N2CCC[C@H]2C(N)=O)sc1-c1ccnc(C(C)(C)C(F)(F)F)c1 [Alpelisib] (partner 2 µM)
Method in brief: (§1)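 Five library-drug doses in √10 steps were combined with a fixed anchor-drug dose, or a single drug was given alone, by pin tool to lung cancer cell lines in 1536-well plates the day after seeding. Nuclei were stained and counted after 5 days. Relative viability is the nuclei count in treated wells over that in vehicle wells, taken as the median of duplicate plates.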

[2] = compound: CCn1c(-c2nonc2N)nc2cnc(Oc3cccc(NC(=O)c4ccc(OCCN5CCOCC5)cc4)c3)cc21 + CC(=O)Nc1cccc(-n2c(=O)n(C3CC3)c(=O)c3c(Nc4ccc(I)cc4F)n(C)c(=O)c(C)c32)c1 [Trametinib] (partner 0.02 µM)
Method in brief: as §1

[3] = compound: CCn1c(-c2nonc2N)nc2cnc(Oc3cccc(NC(=O)c4ccc(OCCN5CCOCC5)cc4)c3)cc21 + O=C(c1cc(Cc2n[nH]c(=O)c3ccccc23)ccc1F)N1CCN(C(=O)C2CC2)CC1 [Olaparib] (partner 8 µM)
Method in brief: as §1

Mirin + Lapatinib = compound: N=C1NC(=O)/C(=C/c2ccc(O)cc2)S1 [Mirin] + CS(=O)(=O)CCNCc1ccc(-c2ccc3ncnc(Nc4ccc(OCc5cccc(F)c5)c(Cl)c4)c3c2)o1 [Lapatinib] (partner 2 µM)
Method in brief: as §1

Cell Line	relative viability ([1]; first compound 0.04 µM)	relative viability ([1]; first compound 0.1265 µM)	relative viability ([1]; first compound 0.4 µM)	relative viability ([1]; first compound 1.265 µM)	relative viability ([1]; first compound 4 µM)	relative viability ([2]; first compound 0.04 µM)	relative viability ([2]; first compound 0.1265 µM)	relative viability ([2]; first compound 0.4 µM)	relative viability ([2]; first compound 1.265 µM)	relative viability ([2]; first compound 4 µM)	relative viability ([3]; first compound 0.04 µM)	relative viability ([3]; first compound 0.1265 µM)	relative viability ([3]; first compound 0.4 µM)	relative viability ([3]; first compound 1.265 µM)	relative viability ([3]; first compound 4 µM)	relative viability (Mirin + Lapatinib; first compound 0.25 µM)	relative viability (Mirin + Lapatinib; first compound 0.7906 µM)	relative viability (Mirin + Lapatinib; first compound 2.5 µM)	relative viability (Mirin + Lapatinib; first compound 7.906 µM)	relative viability (Mirin + Lapatinib; first compound 25 µM)
NCI-H2085	1.05	0.915	0.991	0.879	0.832	0.634	0.57	0.521	0.574	0.535	0.832	0.693	0.632	0.573	0.559	0.828	0.791	0.823	0.807	0.628
NCI-H2087	1.01	0.881	1.05	0.805	0.809	0.209	0.293	0.203	0.228	0.231	0.802	0.539	0.559	0.483	0.586	1.09	1.07	0.91	1.12	1.14
NCI-H2126	0.74	0.756	0.722	0.639	0.745	0.61	0.594	0.562	0.583	0.57	1.09	0.966	0.907	0.889	0.854	0.77	0.735	0.765	0.717	0.621
NCI-H2170	0.841	0.753	0.762	0.713	0.685	0.885	0.941	0.96	0.926	0.974	0.629	0.661	0.629	0.549	0.415	0.273	0.223	0.278	0.324	0.274
NCI-H2228	0.726	0.931	0.805	0.651	0.675	0.558	0.495	0.345	0.349	0.362	1.13	0.742	0.776	0.671	0.544	0.88	1	1.51	1.12	0.921
NCI-H2347	1.07	1.07	0.948	0.769	0.938	0.261	0.279	0.298	0.238	0.262	0.549	0.587	0.824	0.383	0.448	0.915	0.944	0.981	0.956	0.966
NCI-H2405	0.858	0.768	0.651		0.941	0.537	0.385	0.311	0.253	0.26	0.883	0.57	0.341	0.258	0.287	1.11	1.12	1.02	1.05	1.22
NCI-H3122	0.954	0.77	0.856	1.01	0.872	0.175	0.189	0.254	0.226	0.247	0.697	0.618	0.643	0.607	0.592	1.04	1.02	1.05	1.05	1.18
PC-3 [JPC-3]	1.06	0.94	1.02	1.04	0.96	0.693	0.589	0.591	0.598	0.537	1.13	1.14	0.966	0.746	0.861	0.52	0.469	0.462	0.455	0.491
PC-14	1.07	0.869	0.959	0.766	0.982	0.632	0.379	0.468	0.426	0.396	0.27	0.206	0.287	0.309	0.326	0.373	0.39	0.339	0.382	0.49
RERF-LC-KJ	0.866	0.676	0.834	0.582	0.743	0.862	0.898	0.826	0.562	0.589	0.898	0.84	0.759	0.447	0.388	0.972	0.968	0.891	0.835	0.95
SK-LU-1	1.03	0.995	1.04	0.771	1	0.481	0.386	0.378	0.254	0.311	0.571	0.305	0.327	0.235	0.257	0.974	0.88	0.792	0.788	0.541
SK-MES-1	0.986	1.05	0.852	0.868	0.86	0.534	0.519	0.402	0.391	0.328	0.772	0.721	0.656	0.568	0.483	0.461	0.469	0.544	0.53	0.624
SW 1573	0.591	0.646	0.745	0.579	0.687	0.716	0.577	0.478	0.229	0.19	0.594	0.4	0.287	0.24	0.183	1.13	1.16	1.09	0.952	0.908
